“And” between values parts separate entries of the source, which are not always exact repeats. Equal entries are not always repeated. Marks after values point to notes of the source that are not given here.
Tested on: patients with MDD
Assay: Changes in Sexual Function Questionnaire (CSFQ) scores, double-blind placebo-controlled clinical study
Assay type: in vivo, Humans
Parameters: key to CSFQ Desire/Interest score / CSFQ Arousal/Excitement score / CSFQ Orgasm/Completion score / CSFQ Total Score / CSFQ Pleasure score / CSFQ Desire/Frequency score: CSFQ items on 5-point scale; higher = more favorable sexual function
Protocol: A double-blind, randomized, placebo-controlled, parallel-group study was performed to evaluate the efficacy, safety and tolerability of OPC-14523 in patients with MDD. The patients selected for participation in the trial had to meet DSM-IV-TR criteria for MDD (296.2x or 296.3x; diagnosis via MINI) and had had symptoms of depression for at least 2 months before the start of the double-blind treatment. Among other drugs prohibited during the study, patients were prohibited from taking drugs used to enhance sexual function, including, but not limited to, sildenafil, tadalafil and vardenafil, or taking psychopharmacologic drugs.
There were 131 patients assigned to receive OPC-14523 at the start of the study. One hundred twenty seven (127) of these patients took at least one dose of OPC-14523. There were 137 patients assigned to receive placebo at the start of the study. One hundred thirty three (133) of these patients took at least one dose of placebo.
Each patient was expected to participate for up to 10 weeks. The 10 weeks included: i) a 4- to 10-day screening period, during which potential participants were administered placebo in a single-blind manner; ii) an 8-week double-blind treatment period; and iii) a 4- to 10- day post-treatment visit period. Baseline evaluations, including assessment of sexual function, were conducted on Day −1. The next day, Day 1, the double-blind medication was begun. All treatment was on an outpatient basis.
The dosages studied were 5 mg BID OPC-14523 (10 mg total daily dose of immediate release tablet of Example 1) and placebo. The drugs were taken after meals in the morning and in the evening, about 12 hours apart.
Data on sexual function were collected using the Changes in Sexual Function Questionnaire (CSFQ). The CSFQ is a 14-item self-report measure of sexual functioning vis-â-vis experiences of pleasure, desire, arousal, and orgasm, with a 5-point response option for each item. The 14-item validated CSFQ was developed from a questionnaire comprising 35 and 36 items for female and male respondents, respectively (Clayton et al., Psychopharmacol Bull. 33(4):731-45 (1997) and Clayton et al., Psychopharmacol Bull. 33(4):747-53 (1997), each incorporated herein by reference in its entirety). The CSFQ has also been independently validated (Bobes et al., J Sex Marital Ther. 26(2): 119-31(2000)). The 14-item CSFQ includes items 8, 11, 14, 19-24 from the interview version of the CSFQ (“CSFQ-I”); Clayton et al., Psychopharmacol Bull. 33(4):731-45 (1997)). The CSFQ differs for men and women, reflecting some variation in wording of items. Males were given the male clinical version, CSFQ-M-C, and women were given the female clinical version, CSFQ-F-C. CSFQ-F-C includes items 25, 27, 28, 30 and 31 from the questions for women on the CSFG-I. CSFQ-M-C includes items 28-32 from the questions for men on the CSFQ-I, as well as item 25 from the questions for women.
The 14-item CSFQ has subscales for sexual pleasure (1 item), desire/frequency (2 items), desire/interest (3 items), arousal (3 items), and orgasm (3 items). In addition, a 14-item total score may be calculated. Higher scores are indicative of more favorable sexual functioning. Threshold scores for total and sub-scales have been defined. A score below the threshold score indicates dysfunction.
Results were scored and analyzed according to the CSFQ instruction manual. The p-values resulted from an analysis of covariance (ANCOVA) linear model where the dependent variable is the change from baseline and independent variables are site effect, treatment effect, and baseline. The p-value is from the Type III sums of squares t-test for the hypothesis that the treatment groups are the same versus the alternative they are different. Last observation carry-forward (LOCF) analysis was used as indicated. In the LOCF analysis, for patients who dropped out before completion of the study, the last observations were carried forward to the final time point. […]

[1] = all patients (men and women), Baseline, before treatment
[2] = all patients (men and women), Day 28, 5 mg BID, LOCF
[3] = all patients (men and women), Day 56, 5 mg BID, LOCF
[4] = men only, Baseline, before treatment
[5] = men only, Day 28, 5 mg BID, LOCF
[6] = men only, Day 56, 5 mg BID, LOCF
[7] = women only, Baseline, before treatment
[8] = women only, Day 28, 5 mg BID, LOCF
[9] = women only, Day 56, 5 mg BID, LOCF

COc1cccc2c1CCC(=O)N2CCCN1CCN(c2cccc(Cl)c2)CC1 [OPC-14523, 1-[3-[4-(3-chlorophenyl)-1-piperazinyl]propyl]-5-methoxy-3,4-dihydro-2(1H)-quinolone]
CSFQ Arousal/Excitement score [1]: 8.97 | CSFQ Desire/Frequency score [1]: 5.13 | CSFQ Desire/Interest score [1]: 7.30 | CSFQ Orgasm/Completion score [1]: 9.50 | CSFQ Pleasure score [1]: 2.06 | CSFQ Total Score [1]: 41.9 | CSFQ Arousal/Excitement score [2]: 9.24 | CSFQ Desire/Frequency score [2]: 5.39 | CSFQ Desire/Interest score [2]: 7.66 | CSFQ Orgasm/Completion score [2]: 9.56 | CSFQ Pleasure score [2]: 2.41** | CSFQ Total Score [2]: 43.4 | CSFQ Arousal/Excitement score [3]: 9.55 | CSFQ Desire/Frequency score [3]: 5.57* | CSFQ Desire/Interest score [3]: 7.94* | CSFQ Orgasm/Completion score [3]: 9.77 | CSFQ Pleasure score [3]: 2.51 (p = 0.11) | CSFQ Total Score [3]: 44.4 (p = 0.05) | sexual function overall, CSFQ Total Scores (in words) (all patients, compared with placebo, Day 28 and/or Day 56): significantly improved sexual function overall | sexual desire (in words) (both men and women): increased sexual desire | sexual pleasure and sexual arousal and excitement (in words) (men): strong trend of improved sexual pleasure and sexual arousal and excitement | CSFQ Arousal/Excitement score [4]: 10.5 and 10.48 | CSFQ Desire/Frequency score [4]: 5.8 and 5.77 | CSFQ Desire/Interest score [4]: 8.2 and 8.21 | CSFQ Orgasm/Completion score [4]: 11.3 and 11.33 | CSFQ Pleasure score [4]: 2.2 and 2.15 | CSFQ Total Score [4]: 47.6 | CSFQ Arousal/Excitement score [5]: 11.13 (p = 0.07) | CSFQ Desire/Frequency score [5]: 6.26* | CSFQ Desire/Interest score [5]: 8.94* | CSFQ Orgasm/Completion score [5]: 11.32 | CSFQ Pleasure score [5]: 2.68*** | CSFQ Total Score [5]: 50.1* | CSFQ Arousal/Excitement score [6]: 11.17 (p = 0.13) | CSFQ Desire/Frequency score [6]: 6.38* | CSFQ Desire/Interest score [6]: 8.91 (p = 0.07) | CSFQ Orgasm/Completion score [6]: 11.34 | CSFQ Pleasure score [6]: 2.60 (p = 0.10) | CSFQ Total Score [6]: 50.2 (p = 0.12) | sexual function overall (in words) (men, compared with placebo, Day 28 and/or Day 56): significantly improved sexual function overall | sexual interest (in words) (men, p=0.07): improved sexual interest | total CSFQ and every subscale vs placebo (in words) (summary): advantage over placebo | CSFQ Arousal/Excitement score [7]: 7.9 and 7.91 | CSFQ Desire/Frequency score [7]: 4.7 and 4.68 | CSFQ Desire/Interest score [7]: 6.7 and 6.66 | CSFQ Orgasm/Completion score [7]: 8.2 and 8.21 | CSFQ Pleasure score [7]: 2.0 and 1.99 | CSFQ Total Score [7]: 37.8 | CSFQ Arousal/Excitement score [8]: 7.91 | CSFQ Desire/Frequency score [8]: 4.78 | CSFQ Desire/Interest score [8]: 6.76 | CSFQ Orgasm/Completion score [8]: 8.33 | CSFQ Pleasure score [8]: 2.22 | CSFQ Total Score [8]: 38.7 | CSFQ Arousal/Excitement score [9]: 8.43 | CSFQ Desire/Frequency score [9]: 5.01 | CSFQ Desire/Interest score [9]: 7.26 (p = 0.08) | CSFQ Orgasm/Completion score [9]: 8.69 | CSFQ Pleasure score [9]: 2.46 | CSFQ Total Score [9]: 40.4 | sexual desire/interest (in words) (women, compared with placebo, Day 28 and/or Day 56): strong trend | sexual interest (in words) (women, p=0.08): improved sexual interest
